Data published in the supplement of paper PMC10307832.

Legend:
Experiment in all cases: relative viability (nuclei count vs DMSO), 5 days (fraction); higher = more cells survive
[1] = compound: C1=CC2=C(C=C(C(=C2N=C1)O)N=NC3=CC4=C(C=C3)C=C(C=C4)S(=O)(=O)O)S(=O)(=O)O + N=C(N)NC(=N)NCCc1ccccc1 [Phenformin] (partner 250 µM)
Summary of the method: (§1)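 Dosing by pin tool came one day after lung cancer cell lines were seeded in 1536-well plates, using either one drug or a fixed anchor-drug dose plus five library-drug doses (not always all listed) in √10 steps. After 5 days, nuclei were counted on 4× images. Relative viability is treated-well nuclei count divided by vehicle-well nuclei count, and values are medians of duplicate plates.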

[2] = compound: C1=CC2=C(C=C(C(=C2N=C1)O)N=NC3=CC4=C(C=C3)C=C(C=C4)S(=O)(=O)O)S(=O)(=O)O + COc1cccc2cc(-c3nc([C@H]4CC[C@H](C(=O)O)CC4)n4ncnc(N)c34)[nH]c12 [OSI-027] (partner 0.5 µM)
Summary of the method: as §1

AT-7519 + Luminespib = compound: O=C(NC1CCNCC1)c1n[nH]cc1NC(=O)c1c(Cl)cccc1Cl [AT-7519] + CCNC(=O)c1noc(-c2cc(C(C)C)c(O)cc2O)c1-c1ccc(CN2CCOCC2)cc1 [Luminespib] (partner 0.01 µM)
Summary of the method: as §1

[3] = compound: C1=CC2=C(C=C(C(=C2N=C1)O)N=NC3=CC4=C(C=C3)C=C(C=C4)S(=O)(=O)O)S(=O)(=O)O + C[C@]1(O)C[C@@H](c2nc(-c3ccc4ccc(-c5ccccc5)nc4c3)c3c(N)nccn32)C1 [Linsitinib] (partner 1 µM)
Summary of the method: as §1

Cell Line	relative viability ([1]; first compound 0.08 µM)	relative viability ([1]; first compound 0.253 µM)	relative viability ([1]; first compound 0.8 µM)	relative viability ([1]; first compound 2.53 µM)	relative viability ([1]; first compound 8 µM)	relative viability ([2]; first compound 0.253 µM)	relative viability ([2]; first compound 0.8 µM)	relative viability ([2]; first compound 2.53 µM)	relative viability ([2]; first compound 8 µM)	relative viability (AT-7519 + Luminespib; first compound 0.01 µM)	relative viability (AT-7519 + Luminespib; first compound 0.03162 µM)	relative viability (AT-7519 + Luminespib; first compound 0.3162 µM)	relative viability (AT-7519 + Luminespib; first compound 1 µM)	relative viability ([3]; first compound 0.08 µM)	relative viability ([3]; first compound 0.253 µM)	relative viability ([3]; first compound 0.8 µM)	relative viability ([3]; first compound 2.53 µM)	relative viability ([3]; first compound 8 µM)	relative viability ([2]; first compound 0.08 µM)
HCC-44	0.126	0.218	0.249	0.17	0.184	0.651	0.5	0.55	0.601	1.13	1.03	0.636	0.235	0.708	0.66	0.664	0.702	0.698	
HCC-827	0.405	0.335	0.397	0.416	0.45	0.764	0.754	0.798	0.843	0.603	0.61	0.566	0.334	1.01	0.912	0.934	0.935	0.927	0.804
NCI-H1623	0.565	0.541	0.609	0.589	0.278	0.391	0.419	0.468	0.438	0.534	0.449	0.397	0.307						0.466
NCI-H2347	0.356	0.318	0.438	0.558	0.303	0.532	0.5	0.341	0.392	0.83	0.268	0.392	0.39	1.01	0.894	0.881	1.03	1.03	0.505
PC-14	0.511	0.486	0.523	0.642	0.485	0.861	0.819	0.833	0.837	0.196	0.151	0.151	0.111	1.03	0.936	0.962	0.948	1.1	1.16
NCI-H1651	0.386	0.331	0.385	0.329	0.337	0.661	0.668	0.75	0.743	0.882	0.675	0.614	0.607	1.01	0.966	1.06	0.922	0.925	0.631
HARA	0.467	0.459	0.464	0.544	0.479	0.524	0.513	0.522	0.48	0.71	0.533	0.412	0.398	1.01	1.08	0.937	1.06	0.957	0.633
NCI-H1650	0.427	0.444	0.42	0.418	0.322	0.542	0.667	0.651	0.65	0.186	0.202	0.205	0.21						0.718
NCI-H1395	0.442	0.405	0.473	0.45	0.452	0.663	0.631	0.632	0.657	0.606	0.648	0.665	0.508	1.11	1.18	1.34	1	1.18	0.639
